These compounds were tested against T1, human IL-17AA (Homo sapiens, UniProt Q16552) (assay: IL-8 release assay in human epithelial keratinocytes adult (HEKa)). Conditions: HEKa cells, 3 ng/mL HEK-human IL-17AA + 10 ng/mL human TNFalpha; read-out: Rel EC50 IL-8 release assay.
T1 construct: host or cells: HEK (human embryonic kidney) cells
T1 sequence (Q16552 24-155): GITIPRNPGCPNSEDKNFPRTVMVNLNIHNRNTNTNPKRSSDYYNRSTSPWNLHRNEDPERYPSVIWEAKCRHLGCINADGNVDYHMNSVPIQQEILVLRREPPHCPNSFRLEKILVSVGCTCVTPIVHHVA
Type: cell-based
Summary of the method: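 Adult human epidermal keratinocytes stimulated 68-72 h at 37 °C with 3 ng/mL HEK-derived human IL-17AA plus 10 ng/mL TNF-alpha (final) in the presence of compound; TNF-alpha alone defines 100% inhibition. Secreted IL-8 measured by HTRF as percent of controls; relative IC50/Emax from four-parameter fit (r^2>0.9), cytotoxicity by PrestoBlue.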
Work on `Cc1n[nH]c(C)c1-c1ccc(NC(=O)C(NC(=O)c2ccnn2C(C)C(C)O)C(C2CC2)C2CC2)cc1` (mixture of isomers) [Example 161, N-[(1S)-1-(dicyclopropylmethyl)-2-[4-(3,5-dimethyl-1H-pyrazol-4-yl)anilino]-2-oxo-ethyl]-2-[(1S,25) and (1R,2R)-2-hydroxy-1-methyl-propyl]pyrazole-3-carboxamide] yielded an EC50 greater than 1000 nM. `Cc1n[nH]c(C)c1-c1ccc(NC(=O)[C@@H](NC(=O)c2conc2C(C)C)C(C2CC2)C2CC2)cc1` [Example 291, N-[(1S)-1-(dicyclopropylmethyl)-2-[4-(3,5-dimethyl-1H-pyrazol-4-yl)anilino]-2-oxo-ethyl]-3-isopropyl-isoxazole-4-carboxamide] gave an EC50 of less than 100 nM. `Cc1n[nH]c(C)c1-c1ccc(NC(=O)[C@@H](NC(=O)c2ccnn2C(C)C(F)F)C(C2CC2)C2CC2)cc1` (stereo partly drawn) [Example 189, N-[(1S)-1-(dicyclopropylmethyl)-2-[4-(3,5-dimethyl-1H-pyrazol-4-yl)anilino]-2-oxo-ethyl]-2-(2,2-difluoro-1-methyl-ethyl)pyrazole-3-carboxamide] gave an EC50 of less than 100 nM. With `CCc1nocc1C(=O)N[C@H](C(=O)Nc1ccc(-c2c(C)n[nH]c2C)cc1)C1CCCCC1` [Example 276, N-[(1S)-1-cyclohexyl-2-[4-(3,5-dimethyl-1H-pyrazol-4-yl)anilino]-2-oxo-ethyl]-3-ethyl-isoxazole-4-carboxamide] the EC50 was less than 100 nM. Work on `Cc1n[nH]c(C)c1-c1ccc(NC(=O)[C@@H](NC(=O)c2ccnn2C(C)C)C2CCC(F)(F)CC2)cc1` [Example 12, N-[(1S)-1-(4,4-difluorocyclohexyl)-2-[4-(3,5-dimethyl-1H-pyrazol-4-yl)anilino]-2-oxo-ethyl]-2-isopropyl-pyrazole-3-carboxamide] yielded an EC50 of less than 100 nM. With `Cc1n[nH]c(C)c1-c1ccc(NC(=O)[C@@H](NC(=O)c2ccn(C(C)C#N)n2)C(C2CC2)C2CC2)cc1` (stereo partly drawn) [Example 172, 1-(1-cyanoethyl)-N-[(1S)-1-(dicyclopropylmethyl)-2-[4-(3,5-dimethyl-1H-pyrazol-4-yl)anilino]-2-oxo-ethyl]pyrazole-3-carboxamide] the EC50 was greater than 1000 nM. `Cc1n[nH]c(C)c1-c1ccc(NC(=O)[C@@H](NC(=O)c2ccnn2C(C)CO)C2CCCCC2)cc1` (single isomer, unassigned) [Example 104] showed an EC50 of 100 to 1000 nM. Compound `Cc1ncn(C)c1-c1ccc(NC(=O)[C@@H](NC(=O)c2ccnn2C)C2CCCCC2)cc1` [Example 337, N-[(1S)-1-cyclohexyl-2-[4-(3,5-dimethylimidazol-4-yl)anilino]-2-oxo-ethyl]-2-methyl-pyrazole-3-carboxamide] has an EC50 of 100 to 1000 nM. With `Cc1n[nH]c(C(C)O)c1-c1ccc(NC(=O)[C@@H](NC(=O)c2ccnn2C)C(c2ccccc2)c2ccccc2)cc1` (stereo partly drawn) [Example 443, N-[(1S)-1-benzhydryl-2-[4-[5-(1-hydroxyethyl)-3-methyl-1H-pyrazol-4-yl]anilino]-2-oxo-ethyl]-2-methyl-pyrazole-3-carboxamide] the EC50 was 100 to 1000 nM. `Cc1n[nH]c(C)c1-c1ccc(NC(=O)[C@@H](NC(=O)c2ccnn2CC(F)F)C(C2CC2)C2CC2)cc1` [Example 115, N-[(1S)-1-(dicyclopropylmethyl)-2-[4-(3,5-dimethyl-1H-pyrazol-4-yl)anilino]-2-oxo-ethyl]-2-(2,2-difluoroethyl)pyrazole-3-carboxamide] gave an EC50 of less than 100 nM. `Cn1cnnc1-c1ccc(NC(=O)[C@@H](NC(=O)C2(F)CC2)C(c2ccccc2)c2ccccc2)cc1` [Example 353, N-[(1S)-1-benzhydryl-2-[4-(4-methyl-1,2,4-triazol-3-yl)anilino]-2-oxo-ethyl]-1-fluoro-cyclopropanecarboxamide] showed an EC50 greater than 1000 nM. `Cc1n[nH]c(C)c1-c1ccc(NC(=O)[C@@H](NC(=O)c2ccnn2C(C)CO)C2C3CC4CC(C3)CC2C4)cc1` (single isomer, unassigned) [Example 188] gave an EC50 of less than 100 nM. Work on `Cc1n[nH]c(C)c1-c1ccc(NC(=O)[C@@H](NC(=O)c2ccnn2C)C(C)C2CCCCC2)cc1` (stereo partly drawn) [Example 220, N-[(1S)-2-cyclohexyl-1-[[4-(3,5-dimethyl-1H-pyrazol-4-yl)phenyl]carbamoyl]propyl]-2-methyl-pyrazole-3-carboxamide] yielded an EC50 of less than 100 nM. With `Cc1n[nH]c(C)c1-c1ccc(NC(=O)[C@@H](NC(=O)c2cnnn2C(C)C)[C@H]2CC[C@H](C)CC2)cc1` [Example 148, N-[(1S)-2-[4-(3,5-dimethyl-1H-pyrazol-4-yl)anilino]-1-(4-methylcyclohexyl)-2-.oxo-ethyl]-3-isopropyl-tnazole-4-carboxamide] the EC50 was less than 100 nM. Compound `Cc1n[nH]c(C)c1-c1ccc(NC(=O)[C@@H](NC(=O)OC2CCC2)C(C2CC2)C2CC2)cc1` [Example 428, Cyclobutyl N-[(1S)-1-(dicyclopropylmethyl)-2-[4-(3,5-dimethyl-1H-pyrazol-4-yl)anilino]-2-oxo-ethyl]carbamate] has an EC50 of less than 100 nM. With `Cc1n[nH]c(C)c1-c1ccc(NC(=O)[C@@H](NC(=O)c2ccnn2CCCO)C(C2CCC2)C2CCC2)cc1` [Example 166, N-[(1S)-1-[di(cyclobutyl)methyl]-2-[4-(3,5-dimethyl-1H-pyrazol-4-yl)anilino]-2-oxo-ethyl]-2-(3-hydroxypropyl)pyrazole-3-carboxamide] the EC50 was less than 100 nM. `Cc1n[nH]c(C)c1-c1ccc(NC(=O)[C@@H](NC(=O)c2c[nH]c3cnccc23)C2CCCCC2)cc1` [Example 64, N-[(1S)-1-cyclohexyl-2-[4-(3,5-dimethyl-1H-pyrazol-4-yl)anilino]-2-oxo-ethyl]-1H-pyrrolo[2,3-c]pyridine-3-carboxamide] gave an EC50 of 100 to 1000 nM. Compound `CCn1nccc1C(=O)N[C@H](C(=O)Nc1ccc(-c2c(C)n[nH]c2C)cc1)C1CCCCC1` [Example 9, N-[(1S)-1-cyclohexyl-2-[4-(3,5-dimethyl-1H-pyrazol-4-yl)anilino]-2-oxo-ethyl]-2-ethyl-pyrazole-3-carboxamide] has an EC50 of less than 100 nM. `Cc1n[nH]c(C)c1-c1ccc(NC(=O)[C@@H](NC(=O)O[C@@H](C)CC[C@H](C)O)C(C2CC2)C2CC2)cc1` [Example 481, [(1S,4S)-4-hydroxy-1-methyl-pentyl] N-[(1S)-1-(dicyclopropylmethyl)-2-[4-(3,5-dimethyl-1H-pyrazol-4-yl)anilino]-2-oxo-ethyl]carbamate] was tested, and the EC50 was greater than 1000 nM. With `Cc1n[nH]c(C)c1-c1ccc(NC(=O)[C@@H](NC(=O)c2ccnn2C(C)CO)C(C)C(C)(C)C)cc1` (single isomer, unassigned) [Example 176] the EC50 was 100 to 1000 nM. For `Cc1n[nH]c(C)c1-c1ccc(NC(=O)C(NC(=O)c2ccnn2C)C(C)c2ccccc2)cc1` (single isomer, unassigned) [Example 236], the EC50 was greater than 1000 nM. `CCc1n[nH]c(CC)c1-c1ccc(NC(=O)[C@@H](NC(=O)c2ccnn2C)C(C2CC2)C2CC2)cc1` [Example 398, N-[(1S)-1-(dicyclopropylmethyl)-2-[4-(3,5-diethyl-1H-pyrazol-4-yl)anilino]-2-oxo-ethyl]-2-methyl-pyrazole-3-carboxamide] showed an EC50 of less than 100 nM. `Cc1[nH]nc(CO)c1-c1ccc(NC(=O)[C@@H](NC(=O)OC(C)(C)C)C2CCCCCC2)cc1` [Example 439, tert-butyl N-[(1S)-1-cycloheptyl-2-[4-[5-(hydroxymethyl)-3-methyl-1H-pyrazol-4-yl]anilino]-2-oxo-ethyl]carbamate] was tested, and the EC50 was 100 to 1000 nM. `Cc1n[nH]c(C)c1-c1ccc(NC(=O)[C@@H](NC(=O)c2ccnn2C(C)CO)[C@H]2CC[C@H](C)CC2)cc1` (single isomer, unassigned) [Example 204] showed an EC50 of less than 100 nM.

— US11377425B1, “Small molecule modulators of IL-17” (LEO Pharma A/S, priority 2018, dated 2022)
